For ten compounds, Kd and binding results are on record in PMC12376241 (2025).

Assay [1] relates to I5 (RNA, aptamer) GGGAGAGGAGGGAGAUAGAUAUCAAACGAACGGCAUGAGGCUCGAUCUACGUUACCCCUCUGACGUUGGCAUUUGUGUUUCGUGGAUGCCACAGGAC
Kind of assay: fluorescence polarization, displacement of Cy3-ODN. The conditions noted are these: 3 mM Mg2+, PBS, apparent, 0.005% Tween 20, 21 °C, 9-nt Cy3-ODN displaced, inhibitor vs response fit. A general note: In fluorescence polarisation assays a small probe gives low polarisation when free and higher when bound to something large.

The subject of assay [2] is R3 (RNA, aptamer) GGGAGAGGAGGGAGAUAGAUAUCAAGUCGGAGGUAUGAGGCUCGAUCACGAAGAAGGCCGAUUGGGUUACCCUCCUUUUUCGUGGAUGCCACAGGAC
As to the kind of experiment: fluorescence polarization, displacement of Cy3-ODN. The note with it: 3 mM Mg2+, PBS, apparent, 0.005% Tween 20, 21 °C, 9-nt Cy3-ODN displaced, inhibitor vs response fit.

Assay [3] has the same test system. As to the kind of experiment: ITC. The conditions noted are these: 300 μM ligand into 20 μM RNA.
Assay [4] relates to R2 (RNA, aptamer) GGGAGAGGAGGGAGAUAGAUAUCAAGAGGUACGUAUGAGGCUCGAUCGGAAGGCUGGUCUAGGUCCCGUCCUGACCGUUUCGUGGAUGCCACAGGAC
Kind of assay: fluorescence polarization, displacement of Cy3-ODN. The conditions noted are these: 3 mM Mg2+, PBS, 0.005% Tween 20, 21 °C, 9-nt Cy3-ODN, 500 nM RNA, 0.1-1 mM compound.

Assay [5] relates to P7 (RNA, aptamer) GGGAGAGGAGGGAGAUAGAUAUCAACAGGAACGGUUGAGGCUCGAUCAGAUACCCCUCGCUACAAUGCGGCAUUGGGUUUCGUGGAUGCCACAGGAC
As to the kind of experiment: fluorescence polarization, displacement of Cy3-ODN. The note with it: 3 mM Mg2+, PBS, 0.005% Tween 20, 21 °C, 9-nt Cy3-ODN, 500 nM RNA, 0.1-1 mM compound.

Assay [6] relates to LR1 (RNA, aptamer) GGGAGAGGAGGGAGAUAGAUAUCAAACUAAACACUUGAGGCUCGAUCUUUAUUGUAUUUACACCAUCUUGUGCAUCAUUUCGUGGAUGCCACAGGAC
As to the kind of experiment: fluorescence polarization, displacement of Cy3-ODN. The note with it: 3 mM Mg2+, PBS, 0.005% Tween 20, 21 °C; for binding: 100 nM Cy3-ODN, 500 nM RNA, tested at 100 μM.

Assay [7] has as its system T1 (RNA, aptamer) GGGAGAGGAGGGAGAUAGAUAUCAACUAUCGCUUGUGAGGCUCGAUCUUUAUGUGCCCCUCCUUCAGGUUUGGCGUCUUUCGUGGAUGCCACAGGAC
Kind of assay: ITC. The conditions noted are these: 1 mM ligand into 50 μM RNA.

The test system is the same in assay [8]. As to the kind of experiment: fluorescence polarization, displacement of Cy3-ODN. The conditions noted are these: 3 mM Mg2+, PBS, 0.005% Tween 20, 21 °C.
The test system of assay [9] is LR1 (RNA, aptamer) GGGAGAGGAGGGAGAUAGAUAUCAAACUAAACACUUGAGGCUCGAUCUUUAUUGUAUUUACACCAUCUUGUGCAUCAUUUCGUGGAUGCCACAGGAC
Kind of assay: ITC. The note with it: 3 mM Mg2+, PBS, 1 mM ligand into 20 μM RNA, ligand-into-buffer heat subtracted.

Assay [10] has as its system HDB1 (RNA, aptamer) GGGAGAGGAGGGAGAUAGAUAUCAAACCCCAUCUUGAGGCUCGAUCGGCUCGUUUUUCAGGGAUAAGUAGAUUUAGUUUUUCGUGGAUGCCACAGGAC
Kind of assay: fluorescence polarization, displacement of Cy3-ODN. The conditions noted are these: 3 mM Mg2+, PBS, apparent, 0.005% Tween 20, 21 °C, shortened Cy3-labelled capture ODN displaced, inhibitor vs response fit.

Assay [11] deals with LM2 (RNA, aptamer) GGGAGAGGAGGGAGAUAGAUAUCAAACUAACAGUCUGAGGCUCGAUCUUUUGCAGAAACUUUCGUCUUUUGGCUAUCUUUCGUGGAUGCCACAGGAC
As to the kind of experiment: fluorescence polarization, displacement of Cy3-ODN. The note with it: 3 mM Mg2+, PBS, 0.005% Tween 20, 21 °C, 100 nM Cy3-ODN, 500 nM RNA, 100 μM compound.

Assay [12] has as its system LM1 (RNA, aptamer) GGGAGAGGAGGGAGAUAGAUAUCAACACUUGAACGUGAGGCUCGAUCUUUUUAGCUUUUUACUGCGGCGUUAACGGUUUUCGUGGAUGCCACAGGAC
Kind of assay: ITC. The note with it: 3 mM Mg2+, PBS, 1 mM ligand into 20 μM RNA, ligand-into-buffer heat subtracted.

For assay [13] the test system is unchanged. As to the kind of experiment: fluorescence polarization, displacement of Cy3-ODN. The note with it: 3 mM Mg2+, PBS, apparent, 0.005% Tween 20, 21 °C, shortened Cy3-labelled capture ODN displaced, inhibitor vs response fit.
Assay [14] has as its system HDB2 (RNA, aptamer) GGGAGAGGAGGGAGAUAGAUAUCAAACCGGCACCUGAGGCUCGAUCUUUGUUUGCAAAGGGCAUUGCAUCGAUGUGUUUUUCGUGGAUGCCACAGGAC
Kind of assay: ITC. The conditions noted are these: 3 mM Mg2+, PBS, 1 mM ligand into 20 μM RNA, ligand-into-buffer heat subtracted, legend also prints HDB1.

Assay [15] relates to LR2 (RNA, aptamer) GGGAGAGGAGGGAGAUAGAUAUCAAUUACCACGCUUGAGGCUCGAUCUUUUGCUUUGUCCAUCUAGUGUUGUCUGCGUUUCGUGGAUGCCACAGGAC
As to the kind of experiment: fluorescence polarization, displacement of Cy3-ODN. The conditions noted are these: 3 mM Mg2+, PBS, 0.005% Tween 20, 21 °C, 100 nM Cy3-ODN, 500 nM RNA, 100 μM compound.

As to `O=P(O)(O)O[C@H]1[C@@H](OP(=O)(O)O)[C@H](OP(=O)(O)O)[C@@H](OP(=O)(O)OP(=O)(O)O)[C@H](OP(=O)(O)O)[C@H]1OP(=O)(O)O`, the Kd in assay [1] was ~ 76 μM.
For `Cc1cc2nc3c(=O)[nH]c(=O)nc-3n(C[C@H](O)[C@H](O)[C@H](O)CO)c2cc1C`, the Kd is ~ 5 μM in assay [2] and 9.88 ± 1.09 µM in assay [3]. Further, the binding result in assay [4] is “weak”.
For the compound `Nc1nc2c(ncn2[C@@H]2O[C@H](COP(=O)(O)OP(=O)(O)O)[C@@H](OP(=O)(O)OP(=O)(O)O)[C@H]2O)c(=O)[nH]1`, the binding result in assay [5] is listed as “weak”.
`Nc1ncnc2c1ncn2[C@@H]1O[C@@H]2COP(=O)(O)O[C@H]2[C@H]1O`: the binding entry in assay [6] is reported as “no”.
With `Cn1c(=O)c2[nH]cnc2n(C)c1=O`, in [6], the binding result is reported as “no”. For the same compound, the Kd was 70.3 ± 6.33 µM in assay [7] and ~ 54 μM in assay [8] (apparent, 9-nt Cy3-ODN displaced, inhibitor vs response fit).
Consider `Cn1c(=O)c2c(ncn2C)n(C)c1=O`, for which the binding result in assay [7] (no interaction) is listed as “no”; in assay [8] (9-nt Cy3-ODN tracer, no binding observed), “no”.
Consider `CC1(C)S[C@@H]2[C@H](NC(=O)[C@H](N)c3ccccc3)C(=O)N2[C@H]1C(=O)O`, for which the binding result in assay [6] is reported as “no”.
As for `NC[C@H]1O[C@H](O[C@H]2[C@H](O)[C@@H](O[C@H]3O[C@H](CO)[C@@H](O)[C@H](N)[C@H]3O)[C@H](N)C[C@@H]2N)[C@H](N)[C@@H](O)[C@@H]1O`, the Kd in [9] worked out at 130.0 ± 30.9 µM.
Take `NC[C@@H]1O[C@H](O[C@H]2[C@@H](O)[C@H](O[C@@H]3[C@@H](O)[C@H](N)C[C@H](N)[C@H]3O[C@H]3O[C@H](CN)[C@@H](O)[C@H](O)[C@H]3N)O[C@@H]2CO)[C@H](N)[C@@H](O)[C@@H]1O`: the Kd in assay [10] is ~ 10 μM; in assay [9], 34.7 ± 1.97 µM; in assay [6] (apparent, shortened Cy3-labelled capture ODN displaced, inhibitor vs response fit) it was ~ 3 μM; in [12] it was 38.0 ± 2.10 µM; in assay [13], ~ 4 μM; in [14], 55.9 ± 3.57 µM. For the same compound, the binding entry in [11] and in assay [15] was “yes” each time.
Turning to `N=C(N)NCCC[C@H](N)C(=O)O`, the binding result in [6] is “no”.
